Laboratory results as given in patent US20210371422A1, “MORPHINAN DERIVATIVE” (priority 2016, published 2021).
Counter-ions that a name gives are not always drawn. Like-named read-outs stand apart in the source and are kept apart here.

Columns and labels:
human opioid δ receptor = biological target: T1, human opioid δ receptor (Homo sapiens, UniProt P41143); assay: Opioid receptor function test (Lance Ultra cAMP Kit), δ receptor; format: cell-based; conditions: for EC50: CHO cells expressing human δ receptor, cAMP, in the presence of forskolin, read-out: δ receptor EC° C.; for Emax: ratio to maximum reaction of control drug SNC80 (100%)
T1 construct: host or cells: CHO cells
T1 sequence (P41143 whole entry): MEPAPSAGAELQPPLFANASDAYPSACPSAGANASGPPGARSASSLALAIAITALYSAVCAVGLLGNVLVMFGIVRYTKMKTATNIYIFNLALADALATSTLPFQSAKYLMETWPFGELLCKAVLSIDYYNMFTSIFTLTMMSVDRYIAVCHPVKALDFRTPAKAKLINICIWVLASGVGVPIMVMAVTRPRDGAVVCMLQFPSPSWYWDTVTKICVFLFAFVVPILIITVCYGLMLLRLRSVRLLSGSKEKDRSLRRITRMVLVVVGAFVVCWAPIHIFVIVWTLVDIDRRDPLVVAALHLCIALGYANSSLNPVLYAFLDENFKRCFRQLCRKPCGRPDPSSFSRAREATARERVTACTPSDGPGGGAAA
Procedure: (§1) Opioid Receptor Function Test
(§2) The functional activities of the compounds provided by the present invention on the μ, δ, and κ opioid receptors were investigated.
(§3) The test was performed by using Lance Ultra cAMP Kit (PerkinElmer) according to a method predetermined for the kit. In the evaluation of the agonistic activity, CHO cells expressing each of the human opioid receptors (δ, μ, and κ, accession numbers and catalog numbers are mentioned below) and 10 μM of each test compound were reacted for 30 minutes in an assay buffer (1×HESS, […], pH 7.4, […] (isobutylmethylxanthine), 7.5% BSA) in the presence of forskolin. Subsequently, the cAMP detection reagent included in the kit was added, and 1 hour afterward, time-resolved fluorescence measurement was performed by using the EnVision plate reader (PerkinElmer). The test compounds and the control drugs (δ: SNC80, μ: DAMGO, K: U-69593) were evaluated in a concentration range of 10^-12 to 10^-5 M, a dose-response curve of each test compound was obtained from the fluorescence values at 665 nm, and EC50 value and the Emax value were calculated. The Emax value was calculated as a ratio of the maximum reaction of the test compound to the maximum reaction of each control drug, which is taken as 100%.

human opioid μ receptor = biological target: T2, human opioid μ receptor (Homo sapiens, UniProt P35372); assay: Opioid receptor function test (Lance Ultra cAMP Kit), μ receptor; format: cell-based; conditions: for EC50: CHO cells expressing human μ receptor, cAMP, N.C. = maximum reaction not reached at highest concentration (10 μM), not calculated, read-out: μ receptor EC° C.
T2 construct: host or cells: CHO cells
T2 sequence (P35372 whole entry): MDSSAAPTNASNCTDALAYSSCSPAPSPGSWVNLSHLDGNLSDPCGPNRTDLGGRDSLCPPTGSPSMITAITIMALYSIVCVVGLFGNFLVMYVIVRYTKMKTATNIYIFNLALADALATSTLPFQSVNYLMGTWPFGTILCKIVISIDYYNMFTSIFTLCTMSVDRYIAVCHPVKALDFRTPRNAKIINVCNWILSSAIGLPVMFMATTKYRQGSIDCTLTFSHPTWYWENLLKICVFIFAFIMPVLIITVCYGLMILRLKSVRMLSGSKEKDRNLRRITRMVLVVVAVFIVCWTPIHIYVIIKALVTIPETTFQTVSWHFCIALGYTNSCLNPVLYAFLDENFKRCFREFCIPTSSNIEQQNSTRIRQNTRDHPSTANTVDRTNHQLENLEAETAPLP
Procedure: as §1, §2, §3

human opioid κ receptor = biological target: T3, human opioid κ receptor (Homo sapiens, UniProt P41145); assay: Opioid receptor function test (Lance Ultra cAMP Kit), κ receptor; format: cell-based
T3 construct: host or cells: CHO cells
T3 sequence (P41145 whole entry): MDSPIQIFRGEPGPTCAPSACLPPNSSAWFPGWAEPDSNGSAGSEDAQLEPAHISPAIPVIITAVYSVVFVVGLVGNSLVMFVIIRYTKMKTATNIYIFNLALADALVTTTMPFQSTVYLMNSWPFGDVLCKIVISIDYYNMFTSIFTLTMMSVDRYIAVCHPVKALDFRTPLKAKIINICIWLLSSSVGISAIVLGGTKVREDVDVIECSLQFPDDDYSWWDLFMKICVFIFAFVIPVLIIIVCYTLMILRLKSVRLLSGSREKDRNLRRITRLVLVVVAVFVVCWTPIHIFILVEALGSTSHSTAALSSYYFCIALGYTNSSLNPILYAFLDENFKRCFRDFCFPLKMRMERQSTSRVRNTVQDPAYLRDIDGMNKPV
Procedure: as §1, §2, §3

hERG potassium channel = biological target: T4, hERG potassium channel (Homo sapiens, UniProt Q12809); assay: hERG potassium channel inhibition test (automatic patch clamp); format: cell-based; conditions: for hERG channel inhibitory effect: hERG-expressing CHO cells
T4 construct: host or cells: CHO cells
T4 sequence (Q12809 whole entry): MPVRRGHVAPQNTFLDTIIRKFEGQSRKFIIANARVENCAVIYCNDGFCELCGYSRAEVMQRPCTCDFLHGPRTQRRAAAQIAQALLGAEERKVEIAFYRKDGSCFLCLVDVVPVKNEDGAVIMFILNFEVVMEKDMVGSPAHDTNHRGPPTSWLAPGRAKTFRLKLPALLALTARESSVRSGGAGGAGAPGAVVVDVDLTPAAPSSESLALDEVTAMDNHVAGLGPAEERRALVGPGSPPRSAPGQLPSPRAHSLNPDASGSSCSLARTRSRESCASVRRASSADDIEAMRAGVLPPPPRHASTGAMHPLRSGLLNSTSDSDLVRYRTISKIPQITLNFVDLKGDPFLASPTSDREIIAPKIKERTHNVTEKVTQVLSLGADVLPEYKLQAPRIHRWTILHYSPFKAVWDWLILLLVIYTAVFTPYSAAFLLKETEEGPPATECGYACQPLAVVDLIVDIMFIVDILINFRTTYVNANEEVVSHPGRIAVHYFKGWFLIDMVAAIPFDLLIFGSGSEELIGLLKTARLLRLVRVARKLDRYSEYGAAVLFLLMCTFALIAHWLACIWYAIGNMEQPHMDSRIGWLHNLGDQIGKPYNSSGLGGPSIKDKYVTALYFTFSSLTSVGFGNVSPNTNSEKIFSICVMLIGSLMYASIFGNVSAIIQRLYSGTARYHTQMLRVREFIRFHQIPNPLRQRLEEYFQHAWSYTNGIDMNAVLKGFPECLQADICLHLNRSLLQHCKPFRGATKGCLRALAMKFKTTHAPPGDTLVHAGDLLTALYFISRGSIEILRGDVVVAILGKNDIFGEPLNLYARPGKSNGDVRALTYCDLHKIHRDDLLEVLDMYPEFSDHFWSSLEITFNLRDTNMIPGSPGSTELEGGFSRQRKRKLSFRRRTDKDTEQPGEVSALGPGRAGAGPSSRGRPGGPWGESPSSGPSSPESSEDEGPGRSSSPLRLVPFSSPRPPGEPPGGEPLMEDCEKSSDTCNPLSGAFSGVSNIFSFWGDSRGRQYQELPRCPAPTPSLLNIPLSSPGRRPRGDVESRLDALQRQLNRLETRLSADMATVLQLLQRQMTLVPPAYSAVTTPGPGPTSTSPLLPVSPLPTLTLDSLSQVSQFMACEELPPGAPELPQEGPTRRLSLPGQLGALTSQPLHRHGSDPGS
Procedure: Human Ether-a-Go-Go Related Gene (hERG) Potassium Channel Inhibition Test
The test was performed with Port-a-Patch automatic patch clump apparatus (Manion Technologies) using hERG channel-stably expressing CHO cells (purchased from Channelopathy Foundation). The membrane potential of the cells was maintained at −80 mV, then there were applied a depolarization pulse at +20 mV for 1.5 seconds, and a following test pulse at −50 mV for 1.5 seconds at a frequency of 1 time per 10 seconds, and the hERG current was confirmed as a tail current induced by the test pulse. The test compound was dissolved in an extracellular fluid (137 mM NaCl, 4 mM KCl, 1.8 mM CaCl2, 1 mM MgCl2, 10 mM D(+)-glucose, 10 mM HEPES, pH 7.4), and the solution was […] at room temperature for 5 minutes. The inhibition ratio was obtained from the ratio of the tail current value observed after the compound was applied based on the tail current value observed before the compound was applied, which was taken as 100%.

C57BL/6N male mice = assay: Mouse elevated plus maze test; format: in vivo; conditions: 0.3 mg/kg subcutaneous administration, 30 minutes before test (FIG. 1)
Procedure: Mouse Elevated Plus Maze Test
For the test, 5 to 6 weeks old C57BL/6N male mice were used. On a plus maze apparatus consisting of a wall-less running route (open arm, width 6 cm, length 30 cm) and a running route with a wall (closed arm, width 6 cm, length 30 cm, height of wall 15 cm), and having a height of 40 cm, a mouse was put so as to be directed to the running route with a wall, and allowed to spontaneously enter into the plus maze. Each test substance was dissolved in saline or 0.005 N HCl in saline, and subcutaneously administered on the back 30 minutes before the start of the test. At the time of the start of the test, video recording with a video camera was started, the time at which the mouse entered into the plus maze is considered to be the start of the test, and exploratory behavior was recorded for 5 minutes. On the basis of the video image, staying time in the running routes were determined, and wall-less running route staying time ratio (%) was calculated.

Wistar male rats = assay: Rat elevated plus maze test; format: in vivo
Procedure: Rat Elevated Plus Maze Test
An anxiolytic effect of a compound provided by the present invention was examined using the rat elevated plus maze test.
For the test, 7 to 9 weeks old Wistar male rats were used. […] Each test substance was dissolved in a 4.5% aqueous solution of cyclodextrin, and orally administered 2 hours before the start of the test. The test data were automatically analyzed by using video image action analysis software (Smart3.0, PanLab S.L., PanLab), and wall-less running route staying time ratio (%) was calculated.

[1] = Intracerebral migration test (concentration in cerebrospinal fluid and plasma); format: in vivo; conditions: male, Wistar, sc, rat, 3 mg/kg s.c., 30 minutes after administration
Procedure: Intracerebral Migration Test
A Wistar male 5-9 week old rat was used for the test. A test substance was dissolved in saline or a 4.5% cyclodextrin aqueous solution, and 1 mol/L hydrochloric acid (0.5 to 2.0 v/v %) was added thereto as necessary. The test substance was subcutaneously administered to the rat at a dose of 3 or 10 mg/kg. Thirty minutes later, cerebrospinal fluid was collected from the cisterna magna under isoflurane anesthesia. Subsequently, laparotomy was performed, and blood was collected from the vena cava. Thereafter, the blood was centrifuged at 1500×g at 4° C. for 15 minutes to obtain plasma. The animal was euthanized promptly by aortic cutting. The concentrations of the test substance in cerebrospinal fluid and plasma were measured using LC-MS/MS.

[2] = read-out: μ receptor Emax (*reaction rate at the highest concentration, reference value)
[3] = read-out: κ receptor Emax (*reaction rate at the highest concentration, reference value)
[4] = ratio to maximum reaction of control drug DAMGO (100%), read-out: μ receptor Emax

| SMILES | EC50 (human opioid δ receptor) [nM] | Emax (human opioid δ receptor) [%] | Emax (human opioid μ receptor; [2]) [%] | Emax (human opioid κ receptor; [3]) [%] | hERG channel inhibitory effect (in words) (hERG potassium channel) | hERG channel inhibitory effect (hERG potassium channel; concentration 10 μM) [%] | further results |
| --- | --- | --- | --- | --- | --- | --- | --- |
| O=C([C@H]1CCCN1)N1C[C@H]2C[C@@]34CC[C@@H]1[C@@H]2[C@@]31CCN(CC2CC2)[C@@H]4Cc2ccc(O)cc21 [Example 2, (1S,3aR,5aS,6R,11bR,11cS)-3-(D-prolyl)-14-(cyclopropylmethyl)-10-hydroxy-2,3,3a,4,5,6,7,11c-octahydro-1H-6,11b-(epiminoethano)-1,5a-methanonaphtho[1,2-e]indole dihydrochloride] | < 3 | 95 | 3.8 | 3.8 | only a weak inhibitory effect | <50 |  |
| O=C([C@H]1CCCCN1)N1C[C@H]2C[C@@]34CC[C@@H]1[C@@H]2[C@@]31CCN(CC2CC2)[C@@H]4Cc2ccc(O)cc21 [Example 4, ((1S,3aR,5aS,6R,11bR,11cS)-14-(cyclopropylmethyl)-10-hydroxy-1,2,3a,4,5,6,7,11c-octahydro-3H-6,11b-(epiminoethano)-1,5a-methanonaphtho[1,2-e]indol-3-yl) ((R)-piperidin-2-yl) methanone dihydrochloride] | < 3 | 82 | 0.87 | 5 | only a weak inhibitory effect | <50 |  |
| O=C([C@H]1CCCNC1)N1C[C@H]2C[C@@]34CC[C@@H]1[C@@H]2[C@@]31CCN(CC2CC2)[C@@H]4Cc2ccc(O)cc21 [Example 6, ((1S,3aR,5aS,6R,11bR,11cS)-14-(cyclopropylmethyl)-10-hydroxy-1,2,3a,4,5,6,7,11c-octahydro-3H-6,11b-(epiminoethano)-1,5a-methanonaphtho[1,2-e]indol-3-yl) ((S)-piperidin-3-yl) methanone dihydrochloride] | < 3 | 74 | 5.5 |  |  |  | EC50 (human opioid κ receptor): < 1 nM; Emax (human opioid κ receptor; read-out: κ receptor Emax): 11% |
| CN1CCC[C@@H]1C(=O)N1C[C@H]2C[C@@]34CC[C@@H]1[C@@H]2[C@@]31CCN(CC2CC2)[C@@H]4Cc2ccc(O)cc21 [Example 9, (1S,3aR,5aS,6R,11bR,11cS)-14-(cyclopropylmethyl)-10-hydroxy-3-(methyl-D-prolyl)-2,3,3a,4,5,6,7,11c-octahydro-1H-6,11b-(epiminoethano)-1,5a-methanonaphtho[1,2-e]indol] | < 3 | 64 | -0.6 | 3.7 |  |  |  |
| O=C([C@H]1CCCO1)N1C[C@H]2CC34CCC1C2C31CCN(CC2CC2)C4Cc2ccc(O)cc21 (stereo partly drawn) [Example 12, ((1S,3aR,5aS,6R,11bR,11cS)-14-(cyclopropylmethyl)-10-hydroxy-1,2,3a,4,5,6,7,11c-octahydro-3H-6,11b-(epiinoetano)-1,5a-methanonaphtho[1,2-e]indol-3-yl) ((R)-tetrahydrofuran-2-yl) methanone] | < 1 | 85 |  | 8.7 |  |  | EC50 (human opioid μ receptor): > 1 nM; Emax (human opioid μ receptor; [4]): 12%; wall-less traveling path residence time rate (C57BL/6N male mice): significantly increases; minimum effective medicinal dose (Wistar male rats; rat elevated plus maze test, p. o.): 0.3 mg/kg; wall-less traveling path residence time rate (Wistar male rats; rat, 0.3 mg/kg oral administration, 2 hours before test (FIG. 2)): significantly increases; hERG channel inhibitory effect (hERG potassium channel; concentration 1 μM): <50%; concentration at 30 min ([1]; cerebrospinal fluid, read-out: Concentration in cerebrospinal fluid): 42 nM; concentration at 30 min ([1]; plasma, read-out: Concentration in plasma): 580 nM |
| O=C1CC[C@H](C(=O)N2C[C@H]3C[C@@]45CC[C@@H]2[C@@H]3[C@@]42CCN(CC3CC3)[C@@H]5Cc3ccc(O)cc32)O1 [Example 13, (R)-5-((1S,3aR,5aS,6R,11bR,11cS)-14-(cyclopropylmethyl)-10-hydroxy-2,3,3a,4,5,6,7,11c-octahydro-1H-6,11b-(epiminoethano)-1,5a-methanonaphtho[1,2-e]indole-3-carbonyl) dihydrofuran-2(3H)-one] | < 3 | 70 |  |  |  |  | EC50 (human opioid μ receptor): > 1 nM; Emax (human opioid μ receptor; [4]): 35%; EC50 (human opioid κ receptor; CHO cells expressing human κ receptor, cAMP, N.C. = maximum reaction not reached at highest concentration (10 μM), not calculated, read-out: κ receptor EC° C.): < 1 nM; Emax (human opioid κ receptor; ratio to maximum reaction of control drug U-69593 (100%), read-out: κ receptor Emax): 13%; hERG channel inhibitory effect (hERG potassium channel; concentration 1 μM): <50% |
| O=C([C@H]1CCCO1)N1C[C@H]2CC34CCC1C2C31CCNC4Cc2ccc(O)cc21 (stereo partly drawn) [Example 14, ((1S,3aR,5aS,6R,11bR,11cS)-10-hydroxy-1,2,3a,4,5,6,7,11c-octahydro-3H-6,11b-(epiinoetano)-1,5a-methanonaphtho[1,2-e]indol-3-yl) ((R)-tetrahydrofuran-2-yl) methanone] |  |  |  |  | only a weak inhibitory effect | <50 |  |
